Measurements reported in PubChem BioAssay AID2060607 (Molecular Pharmacology Branch, DTP, NCI, 2025).

Tested on: 876862-298-R-J1-PDC complex spheroids, viability % test/control
Test: Anticancer human tumor 876862-298-R-J1-PDC patient-derived endometrial carcinoma cell line growth inhibition [CLK]
Settings: for IC50: curve of first compound; for viability, T/C: stronger effect = lower value; active means viability on the fitted dose curve at most 10% of control; inactive means the rest
Outline: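 Patient-derived tumor cells grown as complex spheroids with HUVEC endothelial cells and mesenchymal stem cells, treated with drug combinations. Concentrations descend in half-log steps from near clinical Cmax, or from 10 microM if Cmax unknown.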
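Further: spheroids exposed to drugs for 7 days before readout.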
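Wherever viability, T/C is given: 100% = DMSO vehicle control wells.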

Cn1ncnc1[C@H]1c2n[nH]c(=O)c3cc(F)cc(c23)N[C@@H]1c1ccc(F)cc1 + CNC(=O)c1ccc(Nc2nc(OC3CCCC3)c3c(-c4ccc5nc(C)oc5c4)c[nH]c3n2)c(OC)c1
> 100000 pM: IC50 (second compound 0.0316 µM)
inactive: viability, T/C (second compound 0.0316 µM, first compound 0.000316 µM) 67.3% | viability, T/C (second compound 0.0316 µM, first compound 0.001 µM) 84.6% | viability, T/C (second compound 0.0316 µM, first compound 0.00316 µM) 73.4% | viability, T/C (second compound 0.0316 µM, first compound 0.01 µM) 79.9% | viability, T/C (second compound 0.0316 µM, first compound 0.0316 µM) 89.7% | viability, T/C (second compound 0.0316 µM, first compound 0.1 µM) 77.5% | viability, T/C (second compound 0.1 µM, first compound 0.000316 µM) 42.2% | viability, T/C (second compound 0.1 µM, first compound 0.001 µM) 45.4% | viability, T/C (second compound 0.1 µM, first compound 0.00316 µM) 46.7% | viability, T/C (second compound 0.1 µM, first compound 0.01 µM) 46.5% | viability, T/C (second compound 0.1 µM, first compound 0.0316 µM) 53% | viability, T/C (second compound 0.1 µM, first compound 0.1 µM) 45.6% | viability, T/C (second compound 0.316 µM, first compound 0.000316 µM) 40.9% | viability, T/C (second compound 0.316 µM, first compound 0.001 µM) 44.5% | viability, T/C (second compound 0.316 µM, first compound 0.00316 µM) 46% | viability, T/C (second compound 0.316 µM, first compound 0.01 µM) 43.3% | viability, T/C (second compound 0.316 µM, first compound 0.0316 µM) 44.1% | viability, T/C (second compound 0.316 µM, first compound 0.1 µM) 36.7% | viability, T/C (second compound 1 µM, first compound 0.000316 µM) 31.3% | viability, T/C (second compound 1 µM, first compound 0.001 µM) 32.9% | viability, T/C (second compound 1 µM, first compound 0.00316 µM) 30% | viability, T/C (second compound 1 µM, first compound 0.01 µM) 28.5% | viability, T/C (second compound 1 µM, first compound 0.0316 µM) 26.8% | viability, T/C (second compound 1 µM, first compound 0.1 µM) 27.9% | viability, T/C (second compound 3.16 µM, first compound 0.000316 µM) 22.8% | viability, T/C (second compound 3.16 µM, first compound 0.001 µM) 23.2% | viability, T/C (second compound 3.16 µM, first compound 0.00316 µM) 19.6% | viability, T/C (second compound 3.16 µM, first compound 0.01 µM) 21.5% | viability, T/C (second compound 3.16 µM, first compound 0.0316 µM) 21.7% | viability, T/C (second compound 3.16 µM, first compound 0.1 µM) 18.5% | viability, T/C (second compound 10 µM, first compound 0.000316 µM) 21.1% | viability, T/C (second compound 10 µM, first compound 0.001 µM) 22.4% | viability, T/C (second compound 10 µM, first compound 0.00316 µM) 20% | viability, T/C (second compound 10 µM, first compound 0.01 µM) 23.3% | viability, T/C (second compound 10 µM, first compound 0.0316 µM) 17.5% | viability, T/C (second compound 10 µM, first compound 0.1 µM) 16.2%
< 316 pM: IC50 (second compound 0.1 µM) | IC50 (second compound 0.316 µM) | IC50 (second compound 1 µM) | IC50 (second compound 3.16 µM) | IC50 (second compound 10 µM)
